For four cell lines, relative viability results are on record in the supplement of paper PMC10307832.

Common to all, as to assay: relative viability (nuclei count vs DMSO), 5 days (fraction); higher = more cells survive
Compound in the assay “Erlotinib + Decitabine”: C#Cc1cccc(Nc2ncnc3cc(OCCOC)c(OCCOC)cc23)c1 [Erlotinib] + Nc1ncn([C@H]2C[C@H](O)[C@@H](CO)O2)c(=O)n1 [Decitabine] (partner 2 µM)
The gist of the method:
(§1)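 Lung cancer cell lines were pin-tool dosed in 1536-well plates on the day after seeding, with either a lone drug or a fixed anchor-drug dose plus five library-drug doses (not always all listed) in √10 steps. Nuclei were counted on 4× images after 5 days. Relative viability is the ratio of treated-well to vehicle-well nuclei counts, with each value a median of duplicate plates.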

Compound in the assay “AT9283 + Navitoclax”: O=C(Nc1c[nH]nc1-c1nc2ccc(CN3CCOCC3)cc2[nH]1)NC1CC1 [AT9283] + CC1(C)CCC(c2ccc(Cl)cc2)=C(CN2CCN(c3ccc(C(=O)NS(=O)(=O)c4ccc(N[C@H](CCN5CCOCC5)CSc5ccccc5)c(S(=O)(=O)C(F)(F)F)c4)cc3)CC2)C1 [Navitoclax] (partner 0.5 µM)
In short, it runs like this: as §1

Compound in the assay “AT9283 + Pictilisib”: O=C(Nc1c[nH]nc1-c1nc2ccc(CN3CCOCC3)cc2[nH]1)NC1CC1 [AT9283] + CS(=O)(=O)N1CCN(Cc2cc3nc(-c4cccc5[nH]ncc45)nc(N4CCOCC4)c3s2)CC1 [Pictilisib] (partner 1 µM)
In short, it runs like this:
as §1

Compound in the assay “AT9283 + AZD7762”: O=C(Nc1c[nH]nc1-c1nc2ccc(CN3CCOCC3)cc2[nH]1)NC1CC1 [AT9283] + NC(=O)Nc1cc(-c2cccc(F)c2)sc1C(=O)N[C@H]1CCCNC1 [AZD7762] (partner 0.2 µM)
The gist of the method: as §1

Compound in the assay “AT9283 + Vorinostat”: O=C(Nc1c[nH]nc1-c1nc2ccc(CN3CCOCC3)cc2[nH]1)NC1CC1 [AT9283] + O=C(CCCCCCC(=O)Nc1ccccc1)NO [Vorinostat] (partner 1 µM)
In short, it runs like this: as §1

With EMC-BAC-2, the relative viability turned out to be 0.882 with Erlotinib + Decitabine (first compound 0.2 µM); 0.951 with Erlotinib + Decitabine (first compound 0.6325 µM); 0.82 with Erlotinib + Decitabine (first compound 2 µM); 1.23 with AT9283 + Navitoclax (first compound 0.003 µM); 0.785 with AT9283 + Navitoclax (first compound 0.03 µM); 0.199 in the assay with AT9283 + Navitoclax (first compound 0.09487 µM). Further, the relative viability amounted to 0.25 in the assay with AT9283 + Navitoclax (first compound 0.3 µM); 0.537 with AT9283 + Pictilisib (first compound 0.003 µM); 0.375 in the assay with AT9283 + Pictilisib (first compound 0.03 µM); 0.228 with AT9283 + Pictilisib (first compound 0.09487 µM); 0.235 in the assay with AT9283 + Pictilisib (first compound 0.3 µM); 1.04 with AT9283 + AZD7762 (first compound 0.003 µM). Moreover, the relative viability in the assay with AT9283 + AZD7762 (first compound 0.03 µM) is 0.411; in the assay with AT9283 + AZD7762 (first compound 0.09487 µM) it was 0.349; with AT9283 + AZD7762 (first compound 0.3 µM) it was 0.281; in the assay with AT9283 + Vorinostat (first compound 0.003 µM) it was 0.28; with AT9283 + Vorinostat (first compound 0.03 µM), 0.19; with AT9283 + Vorinostat (first compound 0.09487 µM), 0.159. Moreover, the relative viability with AT9283 + Vorinostat (first compound 0.3 µM) was determined as 0.146.
In the case of NCI-H1395, the relative viability with Erlotinib + Decitabine (first compound 0.02 µM) stood at 0.816; with Erlotinib + Decitabine (first compound 0.2 µM), 0.726; with Erlotinib + Decitabine (first compound 0.6325 µM) it was 0.807; in the assay with Erlotinib + Decitabine (first compound 2 µM), 0.678; with AT9283 + Navitoclax (first compound 0.003 µM), 1.21; with AT9283 + Navitoclax (first compound 0.03 µM), 0.716. Further, the relative viability came to 0.393 with AT9283 + Navitoclax (first compound 0.09487 µM); 0.421 in the assay with AT9283 + Navitoclax (first compound 0.3 µM); 0.583 with AT9283 + Pictilisib (first compound 0.003 µM); 0.474 in the assay with AT9283 + Pictilisib (first compound 0.03 µM); 0.388 with AT9283 + Pictilisib (first compound 0.09487 µM); 0.399 with AT9283 + Pictilisib (first compound 0.3 µM). Moreover, the relative viability with AT9283 + AZD7762 (first compound 0.003 µM) was 0.411; with AT9283 + AZD7762 (first compound 0.03 µM), 0.361; with AT9283 + AZD7762 (first compound 0.09487 µM) it was 0.333; with AT9283 + AZD7762 (first compound 0.3 µM), 0.335; with AT9283 + Vorinostat (first compound 0.003 µM), 0.579; with AT9283 + Vorinostat (first compound 0.03 µM), 0.494. Also, the relative viability stood at 0.337 with AT9283 + Vorinostat (first compound 0.09487 µM) and 0.299 with AT9283 + Vorinostat (first compound 0.3 µM).
Turning to NCI-H322M, the relative viability is 0.718 with Erlotinib + Decitabine (first compound 0.02 µM); 0.582 with Erlotinib + Decitabine (first compound 0.2 µM); 0.55 with Erlotinib + Decitabine (first compound 0.6325 µM); 0.545 with Erlotinib + Decitabine (first compound 2 µM); 1.27 with AT9283 + Navitoclax (first compound 0.003 µM); 0.802 in the assay with AT9283 + Navitoclax (first compound 0.03 µM). The relative viability with AT9283 + Navitoclax (first compound 0.09487 µM) was found to be 0.731; with AT9283 + Navitoclax (first compound 0.3 µM), 0.436; with AT9283 + Pictilisib (first compound 0.003 µM), 0.498; with AT9283 + Pictilisib (first compound 0.03 µM), 0.413; in the assay with AT9283 + Pictilisib (first compound 0.09487 µM), 0.294; in the assay with AT9283 + Pictilisib (first compound 0.3 µM) it was 0.298. The relative viability with AT9283 + AZD7762 (first compound 0.003 µM) was determined as 0.554; in the assay with AT9283 + AZD7762 (first compound 0.03 µM), 0.395; with AT9283 + AZD7762 (first compound 0.09487 µM), 0.46; in the assay with AT9283 + AZD7762 (first compound 0.3 µM), 0.487; in the assay with AT9283 + Vorinostat (first compound 0.003 µM), 0.87; with AT9283 + Vorinostat (first compound 0.03 µM), 0.579. Also, the relative viability is 0.497 in the assay with AT9283 + Vorinostat (first compound 0.09487 µM) and 0.407 with AT9283 + Vorinostat (first compound 0.3 µM).
Consider NCI-H727, for which the relative viability with Erlotinib + Decitabine (first compound 0.02 µM) was 0.898; in the assay with Erlotinib + Decitabine (first compound 0.2 µM) it was 0.596; with Erlotinib + Decitabine (first compound 0.6325 µM) it was 0.92; with Erlotinib + Decitabine (first compound 2 µM), 0.731; with AT9283 + Navitoclax (first compound 0.003 µM), 0.532; with AT9283 + Navitoclax (first compound 0.03 µM), 0.235. Moreover, the relative viability with AT9283 + Navitoclax (first compound 0.09487 µM) was determined as 0.154; in the assay with AT9283 + Navitoclax (first compound 0.3 µM) it was 0.11; in the assay with AT9283 + Pictilisib (first compound 0.003 µM), 0.379; with AT9283 + Pictilisib (first compound 0.03 µM), 0.395; in the assay with AT9283 + Pictilisib (first compound 0.09487 µM), 0.225; with AT9283 + Pictilisib (first compound 0.3 µM), 0.167. For the same cell line, the relative viability in the assay with AT9283 + AZD7762 (first compound 0.003 µM) was 0.684; with AT9283 + AZD7762 (first compound 0.03 µM), 0.574; with AT9283 + AZD7762 (first compound 0.09487 µM), 0.37; with AT9283 + AZD7762 (first compound 0.3 µM), 0.383; with AT9283 + Vorinostat (first compound 0.003 µM) it was 1.07; in the assay with AT9283 + Vorinostat (first compound 0.03 µM) it was 0.866. The relative viability with AT9283 + Vorinostat (first compound 0.09487 µM) amounted to 0.815; in the assay with AT9283 + Vorinostat (first compound 0.3 µM) it was 0.499.
